Measurements as given in PMC12751061, “Expression and characterization of an endo-β-1,6-galactanase from Arabidopsis thaliana” (Biochemical Journal, 2025).

Biological target: T1, ATIYA1 (Arabidopsis thaliana, UniProt F4HP22)
T1 construct: gene At1g13130; secreted from Komagataella phaffii X-33 (pPICZalpha-A), N-glycosylated, Ni-NTA purified
Assay: HPAEC-PAD hydrolysis time course
Type: biochemical
Conditions: 100 µM substrate, 10 nM enzyme, 0.1 M sodium acetate pH 5.0, 30°C

T1 sequence (F4HP22 entry or part of it): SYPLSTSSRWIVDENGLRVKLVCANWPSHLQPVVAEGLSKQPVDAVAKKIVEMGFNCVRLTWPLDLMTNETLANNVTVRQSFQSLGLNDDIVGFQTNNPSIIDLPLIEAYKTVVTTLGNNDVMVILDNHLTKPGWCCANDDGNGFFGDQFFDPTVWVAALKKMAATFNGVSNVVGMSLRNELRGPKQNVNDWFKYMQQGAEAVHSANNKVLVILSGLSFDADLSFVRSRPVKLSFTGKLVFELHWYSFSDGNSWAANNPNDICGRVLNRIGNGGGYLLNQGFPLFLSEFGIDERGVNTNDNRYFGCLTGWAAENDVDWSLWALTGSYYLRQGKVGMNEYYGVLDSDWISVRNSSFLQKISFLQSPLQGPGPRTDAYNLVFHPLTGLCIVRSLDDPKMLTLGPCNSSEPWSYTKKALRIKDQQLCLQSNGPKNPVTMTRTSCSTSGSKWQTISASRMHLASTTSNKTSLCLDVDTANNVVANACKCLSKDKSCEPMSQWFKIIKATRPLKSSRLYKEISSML

Structure (SMILES): CO[C@@H]1O[C@H](CO[C@@H]2O[C@H](CO[C@@H]3O[C@H](CO[C@@H]4O[C@H](CO[C@@H]5O[C@H](CO)[C@H](O)[C@H](O)[C@H]5O)[C@H](O)[C@H](O)[C@H]4O)[C@H](O)[C@H](O)[C@H]3O)[C@H](O)[C@H](O)[C@H]2O)[C@H](O)[C@H](O)[C@H]1O [methyl-β-1,6-galactopentaoside]
- HPAEC-PAD hydrolysis time course: preferring higher degrees of polymerization such as methyl-β-1,6-galactopentaoside and methyl-β-1,6-galactohexaoside

Structure (SMILES): CO[C@@H]1O[C@H](CO[C@@H]2O[C@H](CO[C@@H]3O[C@H](CO[C@@H]4O[C@H](CO[C@@H]5O[C@H](CO[C@@H]6O[C@H](CO)[C@H](O)[C@H](O)[C@H]6O)[C@H](O)[C@H](O)[C@H]5O)[C@H](O)[C@H](O)[C@H]4O)[C@H](O)[C@H](O)[C@H]3O)[C@H](O)[C@H](O)[C@H]2O)[C@H](O)[C@H](O)[C@H]1O [methyl-β-1,6-galactohexaoside]
- HPAEC-PAD hydrolysis time course: preferring higher degrees of polymerization such as methyl-β-1,6-galactopentaoside and methyl-β-1,6-galactohexaoside
